Measured values taken from US20260285888A1, “HETEROCYCLIC COMPOUND AND USE THEREOF” (OTSUKA PHARMACEUTICAL CO., LTD., priority 2023, published 2026).

Assay: Study for confirmation of conversion to brexpiprazole in a buffer (stability of the evaluation compounds)
Format: physicochemical
Details: for Concentration of brexpiprazole formed / Concentration of evaluation compound decreased: in buffer, average of duplicate; for Concentration of brexpiprazole formed: 60-minute reaction sample; for Concentration of evaluation compound decreased: decrease in 60-minute vs 0-minute reaction sample; for stability in the buffer / conversion to brexpiprazole (in words): Tris-hydrochloric acid buffer pH 7.5, 37° C., 60 minutes, 1 μmol/L
Protocol: The conversion from the evaluation compounds to brexpiprazole in a buffer (i.e., the stability of the evaluation compounds) was evaluated.
The Example 1 compound was dissolved in acetonitrile/water (1:1, v/v) to 10 mmol/L and further diluted with acetonitrile/water (1:1, v/v) to 100 μmol/L for use.
The other Example compounds and the Reference Example 5 compound to Reference Example 7 compound were each dissolved in DMSO to 10 mmol/L and further diluted with acetonitrile to 100 μmol/L for use, except for the following compounds.
The compounds of Examples 52, 95, 96, 117, and 130 (EX 52, EX 95, EX 96, EX 117, and EX 130) were dissolved in acetonitrile/water (8:2, v/v) to 10 mmol/L and further diluted with acetonitrile to 100 μmol/L for use.
The compound of Example 97 (EX 97) was dissolved in acetonitrile/water (8:2, v/v) to 10 mmol/L and further diluted with acetonitrile/water (8:2, v/v) to 100 μmol/L for use.
The compounds of Examples 15 and 116 (EX 15 and EX 116) were dissolved in DMSO to 1 mmol/L and further diluted with acetonitrile to 100 μmol/L for use.
The reaction was conducted by preparing each reaction solution such that the final concentration of each component was as follows. The test was conducted in duplicate.
For the compounds of Examples 1 to 8, 10 to 19, 26 to 27, 37, 50, 87 to 89, 91, 116, 121, 123, 150, and 151 (EX 1 to EX 8, EX 10 to EX 19, EX 26 to EX 27, EX 37, EX 50, EX 87 to EX 89, EX 91, EX 116, EX 121, EX 123, EX 150, and EX 151), and the compounds of Reference Examples 5 to 7 (REX 5 to REX 7), the reaction solution without the evaluation compound (198 μl) was pre-incubated at 37° C. for 3 minutes, and then each of the evaluation compound solutions (2 μl) was added and stirred; thereafter, the reaction was started at 37° C. At 0 minutes or 60 minutes after the start of the reaction, the reaction was stopped by adding and stirring a reaction stop solution (1000 μl) composed of acetonitrile/isopropanol (4:1, v/v) containing internal standard substances. However, the 0-minute reaction sample (198 μl) was prepared by adding the evaluation compound (2 μl) after adding the reaction stop solution (1000 μl). The samples after stopping the reaction were used as the measurement samples. Calibration curve samples with the same composition were prepared (final concentrations of the evaluation compounds and brexpiprazole: 0.01, 0.1, and 1 μmol/L, with the proviso that for the evaluation compounds only, the 0-minute reaction samples were also used as calibration curve samples for 1 μmol/L).
For the compounds of Examples 24 to 25, 28 to 29, 32 to 36, 40 to 49, 51 to 60, 62 to 64, 66 to 77, 80 to 86, 90, 92 to 111, 113, 115, 117 to 120, 122, 124 to 130, 132 to 147, and 152 to 160 (EX 24 to EX 25, EX 28 to EX 29, EX 32 to EX 36, EX 40 to EX 49, EX 51 to EX 60, EX 62 to EX 64, EX 66 to EX 77, EX 80 to EX 86, EX 90, EX 92 to EX 111, EX 113, EX 115, EX 117 to EX 120, EX 122, EX 124 to EX 130, EX 132 to EX 147, and EX 152 to EX 160), the reaction solution without the evaluation compound (148.5 μl) was pre-incubated at 37° C. for 3 minutes, and then each of the evaluation compound solutions (1.5 μl) was added and stirred; thereafter, the reaction was started at 37° C. At 0 minutes or 60 minutes after the start of the reaction, the reaction was stopped by adding and stirring a reaction stop solution (600 μl) composed of acetonitrile/isopropanol (4:1, v/v) containing internal standard substances. However, the 0-minute reaction sample (148.5 μl) was prepared by adding the evaluation compound (1.5 μl) after adding the reaction stop solution (600 μl). The samples after stopping the reaction were used as the measurement samples. Calibration curve samples with the same composition were prepared (final concentrations of the evaluation compounds and brexpiprazole: 0.01, 0.1, and 1 μmol/L, with the proviso that for the evaluation compounds only, the 0-minute reaction samples were also used as calibration curve samples for 1 μmol/L). […]

Compound	Concentration of brexpiprazole formed	Concentration of evaluation compound decreased	stability in the buffer / conversion to brexpiprazole (in words)
O=c1ccc2ccc(OCCCC[N+]3(COP(=O)([O-])OCCCO)CCN(c4cccc5sccc45)CC3)cc2[nH]1 [EX 6, (4-(benzo[b]thiophen-4-yl)-1-(4-((2-oxo-1,2-dihydroquinolin-7-yl)oxy)butyl)piperazin-1-ium-1-yl)methyl (3-hydroxypropyl) phosphate]	0 nM	-110 nM	
CCCCCC(=O)OC[N+]1(CCCCOc2ccc3ccc(=O)[nH]c3c2)CCN(c2cccc3sccc23)CC1 [Reference Example 6, reference compound]			clearly degraded to brexpiprazole
COc1ccc(COC(=O)CC(C)(C)CC(=O)OCOP(=O)([O-])OC[N+]2(CCCCOc3ccc4ccc(=O)[nH]c4c3)CCN(c3cccc4sccc34)CC2)cc1 [EX 72, (4-(benzo[b]thiophen-4-yl)-1-(4-((2-oxo-1,2-dihydroquinolin-7-yl)oxy)butyl)piperazin-1-ium-1-yl)methyl (((5-((4-methoxybenzyl)oxy)-3,3-dimethyl-5-oxopentanoyl)oxy)methyl) phosphate]	0 nM	150 nM	
CCC(=O)OC[N+]1(CCCCOc2ccc3ccc(=O)[nH]c3c2)CCN(c2cccc3sccc23)CC1 [Reference Example 5, reference compound]			clearly degraded to brexpiprazole
CC(C)(C)OP(=O)([O-])OC[N+]1(CCCCOc2ccc3ccc(=O)[nH]c3c2)CCN(c2cccc3sccc23)CC1 [EX 4, (4-(benzo[b]thiophen-4-yl)-1-(4-((2-oxo-1,2-dihydroquinolin-7-yl)oxy)butyl)piperazin-1-ium-1-yl)methyl tert-butyl phosphate]	0 nM	20 nM	
CC(C)(C)C(=O)OCOP(=O)([O-])OC[N+]1(CCCCOc2ccc3ccc(=O)[nH]c3c2)CCN(c2cccc3sccc23)CC1 [EX 25, (4-(benzo[b]thiophen-4-yl)-1-(4-((2-oxo-1,2-dihydroquinolin-7-yl)oxy)butyl)piperazin-1-ium-1-yl)methyl ((pivaloyloxy)methyl) phosphate]	0 nM	-10 nM	
CCC(C)(C)C(=O)OCOP(=O)([O-])OC[N+]1(CCCCOc2ccc3ccc(=O)[nH]c3c2)CCN(c2cccc3sccc23)CC1 [EX 122, (4-(benzo[b]thiophen-4-yl)-1-(4-((2-oxo-1,2-dihydroquinolin-7-yl)oxy)butyl)piperazin-1-ium-1-yl)methyl (((2,2-dimethylbutanoyl)oxy)methyl) phosphate]	0 nM	50 nM	
CC(C)(C)OC(=O)CCCC(=O)OCOP(=O)([O-])OC[N+]1(CCCCOc2ccc3ccc(=O)[nH]c3c2)CCN(c2cccc3sccc23)CC1 [EX 69, (4-(benzo[b]thiophen-4-yl)-1-(4-((2-oxo-1,2-dihydroquinolin-7-yl)oxy)butyl)piperazin-1-ium-1-yl)methyl (((5-(tert-butoxy)-5-oxopentanoyl)oxy)methyl) phosphate]	0 nM	-10 nM	
COc1ccc(C(=O)OCCCCCCOP(=O)([O-])OC[N+]2(CCCCOc3ccc4ccc(=O)[nH]c4c3)CCN(c3cccc4sccc34)CC2)cc1 [EX 58, (4-(benzo[b]thiophen-4-yl)-1-(4-((2-oxo-1,2-dihydroquinolin-7-yl)oxy)butyl)piperazin-1-ium-1-yl)methyl (6-((4-methoxybenzoyl)oxy)hexyl) phosphate]	0 nM	40 nM	
CC(C)NC(=O)CCCC(=O)OCOP(=O)([O-])OC[N+]1(CCCCOc2ccc3ccc(=O)[nH]c3c2)CCN(c2cccc3sccc23)CC1 [EX 73, (4-(benzo[b]thiophen-4-yl)-1-(4-((2-oxo-1,2-dihydroquinolin-7-yl)oxy)butyl)piperazin-1-ium-1-yl)methyl (((5-(isopropylamino)-5-oxopentanoyl)oxy)methyl) phosphate]	0 nM	130 nM	
COP(=O)([O-])OC[N+]1(CCCCOc2ccc3ccc(=O)[nH]c3c2)CCN(c2cccc3sccc23)CC1 [EX 87, (4-(benzo[b]thiophen-4-yl)-1-(4-((2-oxo-1,2-dihydroquinolin-7-yl)oxy)butyl)piperazin-1-ium-1-yl)methyl methyl phosphate]	0 nM	0 nM	
CCCCCCCC(=O)OCOP(=O)([O-])OC[N+]1(CCCCOc2ccc3ccc(=O)[nH]c3c2)CCN(c2cccc3sccc23)CC1 [EX 27, (4-(benzo[b]thiophen-4-yl)-1-(4-((2-oxo-1,2-dihydroquinolin-7-yl)oxy)butyl)piperazin-1-ium-1-yl)methyl ((octanoyloxy)methyl) phosphate]	0 nM	0 nM	
CCCOP(=O)([O-])OC[N+]1(CCCCOc2ccc3ccc(=O)[nH]c3c2)CCN(c2cccc3sccc23)CC1 [EX 88, (4-(benzo[b]thiophen-4-yl)-1-(4-((2-oxo-1,2-dihydroquinolin-7-yl)oxy)butyl)piperazin-1-ium-1-yl)methyl propyl phosphate]	0 nM	-10 nM	
O=C(OCOP(=O)([O-])OC[N+]1(CCCCOc2ccc3ccc(=O)[nH]c3c2)CCN(c2cccc3sccc23)CC1)C12CC3CC(CC(C3)C1)C2 [EX 124, (((1s,3s)-adamantane-1-carbonyl)oxy)methyl ((4-(benzo[b]thiophen-4-yl)-1-(4-((2-oxo-1,2-dihydroquinolin-7-yl)oxy)butyl)piperazin-1-ium-1-yl)methyl) phosphate]	0 nM	100 nM	
CC(C)NC(=O)CCCCCCCCC(=O)OCOP(=O)([O-])OC[N+]1(CCCCOc2ccc3ccc(=O)[nH]c3c2)CCN(c2cccc3sccc23)CC1 [EX 76, (4-(benzo[b]thiophen-4-yl)-1-(4-((2-oxo-1,2-dihydroquinolin-7-yl)oxy)butyl)piperazin-1-ium-1-yl)methyl (((10-(isopropylamino)-10-oxodecanoyl)oxy)methyl) phosphate]	0 nM	0 nM	
CC(C)OP(=O)([O-])OC[N+]1(CCCCOc2ccc3ccc(=O)[nH]c3c2)CCN(c2cccc3sccc23)CC1 [EX 5, (4-(benzo[b]thiophen-4-yl)-1-(4-((2-oxo-1,2-dihydroquinolin-7-yl)oxy)butyl)piperazin-1-ium-1-yl)methyl isopropyl phosphate]	0 nM	70 nM	
